The structures appear in SMILES notation.

18 compounds from US20250281424A1 (New York Blood Center, Inc, priority 2020, published 2025) can be followed below.

This assay has as its target T1, human PF4 (Homo sapiens, UniProt P02776).
T1 construct: PF4 is a 70 amino acid, lysine-rich 7.8 kDa platelet-specific protein; made in house; host or cells: Escherichia coli BL21DE3 pLysS (pT7-7) and/or Drosophila S2 cells
T1 sequence (P02776 32-101): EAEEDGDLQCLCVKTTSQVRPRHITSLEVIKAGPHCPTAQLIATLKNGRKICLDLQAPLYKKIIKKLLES
Briefly: Inhibition of PF4 tetramer formation (BS3 cross-linking, SDS-PAGE). Type of assay: biochemical. The settings on record: for inhibition at 5 µM: 5 μM inhibitor; for inhibition at 5 µM / inhibition at 10 µM: read-out: % inhibition of PF4 tetramer formation at single concentration of inhibitor; for inhibition at 10 µM: 10 μM inhibitor (column A); for IC50: read-out: IC50 of PF4 tetramer formation inhibition. In a few lines: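 Recombinant human wild-type PF4 (E. coli-expressed, heparin-purified), 10 μg/ml in PBS, incubated with compound 15 min at 37° C or 60 min at room temperature, then cross-linked with 0.2 mM BS3 for 30 min at room temperature. Reducing 12% SDS-PAGE; bands quantified as % tetramer, trimer, dimer, monomer versus compound-free control.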

In the case of `O=C(CC1CC1)C1C(=O)c2ccc(S(=O)(=O)c3ccc4c(c3)C(=O)C(C(=O)CC3CC3)C4=O)cc2C1=O` (stereo not shown) [Example 149, 2-(2-cyclopropylacetyl)-5-{[2-(2-cyclopropylacetyl)-1,3-dioxo-2,3-dihydro-1H-inden-5-yl]sulfonyl}-2,3-dihydro-1H-indene-1,3-dione], the inhibition at 5 µM is 64% and the inhibition at 10 µM was determined as 53%.
As for `CCCC(=O)C1C(=O)c2ccc(C(=O)c3ccc4c(c3)C(=O)C(C(=O)CCC)C4=O)cc2C1=O` (stereo not shown) [Example 150, 2-butanoyl-5-(2-butanoyl-1,3-dioxo-2,3-dihydro-1H-indene-5-carbonyl)-2,3-dihydro-1H-indene-1,3-dione], the inhibition at 5 µM turned out to be 50%, the inhibition at 10 µM was 75% and the IC50 is roughly 22 µM.
For `COC1CCC(C(=O)C2C(=O)c3ccc(S(=O)(=O)c4ccc5c(c4)C(=O)C(C(=O)C4CCC(OC)CC4)C5=O)cc3C2=O)CC1` (stereo not shown) [Example 151, 2-(4-methoxycyclohexanecarbonyl)-5-{[2-(4-methoxycyclohexanecarbonyl)-1,3-dioxo-2,3-dihydro-1H-inden-5-yl]sulfonyl}-2,3-dihydro-1H-indene-1,3-dione], the inhibition at 5 µM came to 89%, the inhibition at 10 µM stood at 100% and the IC50 is roughly 6 µM.
The like results for `CCCCC(=O)C1C(=O)c2ccc(C(=O)c3ccc4c(c3)C(=O)C(C(=O)CCCC)C4=O)cc2C1=O` (stereo not shown) [Example 153, 5-(1,3-dioxo-2-pentanoyl-2,3-dihydro-1H-indene-5-carbonyl)-2-pentanoyl-2,3-dihydro-1H-indene-1,3-dione] were, in that order, 100%, 100% and 2.4 µM.
The like results for `CCCCC(=O)C1C(=O)c2ccc(S(=O)(=O)c3ccc4c(c3)C(=O)C(C(=O)CCCC)C4=O)cc2C1=O` (stereo not shown) [Example 154, 5-[(1,3-dioxo-2-pentanoyl-2,3-dihydro-1H-inden-5-yl)sulfonyl]-2-pentanoyl-2,3-dihydro-1H-indene-1,3-dione] were, in that order, 100%, 100% and 1.2 µM.
For the compound `C[C@@H](C(=O)C1C(=O)c2ccc(C(=O)c3ccc4c(c3)C(=O)C(C(=O)[C@H](C)N(C)C(=O)OC(C)(C)C)C4=O)cc2C1=O)N(C)C(=O)OC(C)(C)C` (stereo partly drawn) [Example 155, tert-butyl N-[(2S)-1-(5-{2-[(2S)-2-{[(tert-butoxy)carbonyl](methyl)amino}propanoyl]-1,3-dioxo-2,3-dihydro-1H-indene-5-carbonyl}-1,3-dioxo-2,3-dihydro-1H-inden-2-yl)-1-oxopropan-2-yl]-N-methylcarbamate], the inhibition at 5 µM stood at 95%, the inhibition at 10 µM is 100% and the IC50 stood at 2.1 µM.
The like results for `C[C@@H](C(=O)C1C(=O)c2ccc(S(=O)(=O)c3ccc4c(c3)C(=O)C(C(=O)[C@H](C)N(C)C(=O)OC(C)(C)C)C4=O)cc2C1=O)N(C)C(=O)OC(C)(C)C` (stereo partly drawn) [Example 156, tert-butyl N-[(2S)-1-[5-({2-[(2S)-2-{[(tert-butoxy)carbonyl](methyl)amino}propanoyl]-1,3-dioxo-2,3-dihydro-1H-inden-5-yl}sulfonyl)-1,3-dioxo-2,3-dihydro-1H-inden-2-yl]-1-oxopropan-2-yl]-N-methylcarbamate] were, in that order, 94%, 100% and 6.3 µM.
For the compound `CC(C)(C)OC(=O)N[C@@H](Cc1ccccc1)C(=O)C1C(=O)c2ccc(C(=O)c3ccc4c(c3)C(=O)C(C(=O)[C@H](Cc3ccccc3)NC(=O)OC(C)(C)C)C4=O)cc2C1=O` (stereo partly drawn) [Example 157, tert-butyl N-[(2S)-1-(5-{2-[(2S)-2-{[(tert-butoxy)carbonyl]amino}-3-phenylpropanoyl]-1,3-dioxo-2,3-dihydro-1H-indene-5-carbonyl}-1,3-dioxo-2,3-dihydro-1H-inden-2-yl)-1-oxo-3-phenylpropan-2-yl]carbamate], the inhibition at 5 µM was 100%, the inhibition at 10 µM is 100% and the IC50 came to 1.2 µM.
With `CC(C)(C)OC(=O)N[C@@H](Cc1ccccc1)C(=O)C1C(=O)c2ccc(S(=O)(=O)c3ccc4c(c3)C(=O)C(C(=O)[C@H](Cc3ccccc3)NC(=O)OC(C)(C)C)C4=O)cc2C1=O` (stereo partly drawn) [Example 158, tert-butyl N-[(2S)-1-[5-({2-[(2S)-2-{[(tert-butoxy)carbonyl]amino}-3-phenylpropanoyl]-1,3-dioxo-2,3-dihydro-1H-inden-5-yl}sulfonyl)-1,3-dioxo-2,3-dihydro-1H-inden-2-yl]-1-oxo-3-phenylpropan-2-yl]carbamate], the inhibition at 5 µM is 100%, the inhibition at 10 µM came out at 100% and the half-maximal inhibitory concentration (IC50) came out at 1.4 µM.
Regarding `O=C(c1ccc2c(c1)C(=O)C(C(=O)C1CCN(C(=O)OCc3ccccc3)C1)C2=O)c1ccc2c(c1)C(=O)C(C(=O)C1CCN(C(=O)OCc3ccccc3)C1)C2=O` (stereo not shown) [Example 159, benzyl 3-[5-(2-{1-[(benzyloxy)carbonyl]pyrrolidine-3-carbonyl}-1,3-dioxo-2,3-dihydro-1H-indene-5-carbonyl)-1,3-dioxo-2,3-dihydro-1H-indene-2-carbonyl]pyrrolidine-1-carboxylate], the inhibition at 5 µM was found to be 85%, the inhibition at 10 µM was determined as 90% and the IC50 is 3.8 µM.
For the compound `O=C1c2ccc(S(=O)(=O)c3ccc4c(c3)C(=O)C(C(=O)C3CCN(C(=O)OCc5ccccc5)C3)C4=O)cc2C(=O)C1C(=O)C1CCN(C(=O)OCc2ccccc2)C1` (stereo not shown) [Example 160, benzyl 3-{5-[(2-{1-[(benzyloxy)carbonyl]pyrrolidine-3-carbonyl}-1,3-dioxo-2,3-dihydro-1H-inden-5-yl)sulfonyl]-1,3-dioxo-2,3-dihydro-1H-indene-2-carbonyl}pyrrolidine-1-carboxylate], the inhibition at 5 µM came to 75%, the inhibition at 10 µM turned out to be 88% and the IC50 was 5.1 µM.
The like results for `CC(C)(C)OC(=O)N1CCC[C@@H]1C(=O)C1C(=O)c2ccc(C(=O)c3ccc4c(c3)C(=O)C(C(=O)[C@H]3CCCN3C(=O)OC(C)(C)C)C4=O)cc2C1=O` (stereo partly shown) [Example 161] were, in that order, 87%, 93% and 1 µM.
As to `CC(C)(C)OC(=O)N1CCC[C@@H]1C(=O)C1C(=O)c2ccc(S(=O)(=O)c3ccc4c(c3)C(=O)C(C(=O)[C@H]3CCCN3C(=O)OC(C)(C)C)C4=O)cc2C1=O` (stereo partly drawn) [Example 162, tert-butyl (2R)-2-[5-({2-[(2R)-1-[(tert-butoxy)carbonyl]pyrrolidine-2-carbonyl]-1,3-dioxo-2,3-dihydro-1H-inden-5-yl}sulfonyl)-1,3-dioxo-2,3-dihydro-1H-indene-2-carbonyl]pyrrolidine-1-carboxylate], the inhibition at 5 µM is 86%, the inhibition at 10 µM was 94% and the IC50 is 2.6 µM.
In the case of `CC(C)(C)OC(=O)NCCC(=O)C1C(=O)c2ccc(C(=O)c3ccc4c(c3)C(=O)C(C(=O)CCNC(=O)OC(C)(C)C)C4=O)cc2C1=O` (stereo not shown) [Example 163, tert-butyl N-(3-{5-[2-(3-{[(tert-butoxy)carbonyl]amino}propanoyl)-1,3-dioxo-2,3-dihydro-1H-indene-5-carbonyl]-1,3-dioxo-2,3-dihydro-1H-inden-2-yl}-3-oxopropyl)carbamate], the inhibition at 5 µM was 87%, the inhibition at 10 µM came out at 93% and the 50% inhibitory concentration (IC50) was 13 µM.
The corresponding values for `CC(C)(C)OC(=O)NCCC(=O)C1C(=O)c2ccc(S(=O)(=O)c3ccc4c(c3)C(=O)C(C(=O)CCNC(=O)OC(C)(C)C)C4=O)cc2C1=O` (stereo not shown) [Example 164, tert-butyl N-[3-(5-{[2-(3-{[(tert-butoxy)carbonyl]amino}propanoyl)-1,3-dioxo-2,3-dihydro-1H-inden-5-yl]sulfonyl}-1,3-dioxo-2,3-dihydro-1H-inden-2-yl)-3-oxopropyl]carbamate] are 70%, 82% and 5 µM.
With `CC[C@H](NC(=O)OCc1ccccc1)C(=O)C1C(=O)c2ccc(C(=O)c3ccc4c(c3)C(=O)C(C(=O)[C@H](CC)NC(=O)OCc3ccccc3)C4=O)cc2C1=O` (stereo partly drawn) [Example 165, benzyl N—[(S)-1-(5-{2-[(2S)-2-{[(benzyloxy)carbonyl]amino}butanoyl]-1,3-dioxo-2,3-dihydro-1H-indene-5-carbonyl}-1,3-dioxo-2,3-dihydro-1H-inden-2-yl)-1-oxobutan-2-yl]carbamate], the inhibition at 5 µM turned out to be 75%, the inhibition at 10 µM came to 75% and the IC50 turned out to be 3.3 µM.
As for `CC[C@H](NC(=O)OCc1ccccc1)C(=O)C1C(=O)c2ccc(S(=O)(=O)c3ccc4c(c3)C(=O)C(C(=O)[C@H](CC)NC(=O)OCc3ccccc3)C4=O)cc2C1=O` (stereo partly shown) [Example 166], the inhibition at 5 µM turned out to be 59%, the inhibition at 10 µM is 84% and the 50% inhibitory concentration (IC50) came out at 3.4 µM.
On to `CN1CCC[C@H]1C(=O)C1C(=O)c2ccc(S(=O)(=O)c3ccc4c(c3)C(=O)C(C(=O)[C@@H]3CCCN3C)C4=O)cc2C1=O` (stereo partly drawn) [Example 167, 2-[(2S)-1-methylpyrrolidine-2-carbonyl]-5-({2-[(2S)-1-methylpyrrolidine-2-carbonyl]-1,3-dioxo-2,3-dihydro-1H-inden-5-yl}sulfonyl)-2,3-dihydro-1H-indene-1,3-dione], for which the inhibition at 5 µM was 18% and the inhibition at 10 µM came out at 36%.

The term IC50 denotes the concentration at which inhibition is half-maximal.
